Series [1] concerns clinical E. coli isolates (n=111). The series is described as follows: MIC distribution and MIC90, clinical E. coli isolates. Format: cell-based. The note with it: Escherichia coli; n=111, isolates from Spain, Poland, Denmark and Wales. The protocol:
(§1) Minimum inhibitory concentration (MIC) values were determined according to the Clinical Laboratory Standards Institute guidelines. Frequency of resistance was determined by plating ~5 × 10^8 bacterial cells on agar-solidified media plates containing test compound at concentrations corresponding to four times the measured solid-media MIC of the strains. Colonies were counted after 24 h, restreaked onto media containing the same concentration of compound, and the MIC remeasured against the assayed compound. Genomic DNA from isolated clones was sequenced by paired-end sequencing on an Illumina MiSeq device. Complete experimental details available in SI Appendix. […]
(§2) Minimum inhibitory concentration (MIC) determination. Broth microdilution and agar dilution MIC assays were conducted according to CLSI guidelines (M07-2012). Appropriate inoculation suspension density was assessed using a Sensititre Nephelometer with a Sensititre 0.5 […]
(§3) McFarland Standard. […]
(§4) To determine the […]
genotype of MDR strains from the ENABLE strain collection, de novo assembled contigs were analyzed using ResFinder (12–14) […]
MIC distribution versus E. coli (n=111)
Clinical Isolates from Spain, Poland, Denmark and Wales
Figure S4. MIC distribution and MIC90 versus clinical E. coli isolates
MIC distribution versus K. pneumoniae (n=104)
Figure S5. MIC distribution and MIC90 versus clinical K. pneumoniae isolates […]

Series [2] deals with clinical MDR K. pneumoniae isolates. The series is described as follows: MIC, clinical multi-drug resistant K. pneumoniae isolates. The following applies: Klebsiella pneumoniae. Type of series: cell-based. The protocol: as §1, §2, §3, §4
genotype of MDR strains from the ENABLE strain collection, de novo assembled contigs were […]

A further series is described as follows: in vivo. Set-up: species or system NMRI mice. The note with it: female, NMRI, mouse, sc. As to the method: PK and safety studies were done the Latvian Institute for Organic Synthesis (Riga, Latvia) and in vivo efficacy studies were done at Statens Serum Institut (Copenhagen, Denmark). Assays were done in accordance with the relevant permits at the respective sites (SI Appendix). For PK studies, plasma samples were taken from mice dosed subcutaneously and the samples were analyzed by UPLC/MS/MS. For in vivo efficacy studies, neutropenic mice were infected intraperitoneally with 10^6 bacteria and treated with subcutaneously with test compounds 1 h after infection. The mice were euthanized 4 h after treatment and serially diluted samples of blood and peritoneal fluid were plated onto blood agar plates. Complete experimental details available in SI Appendix. […]
In vivo pharmacokinetic studies
Animals. NMRI female mice (10–12 weeks old, 27–33 g, n = 60) were obtained from ENVIGO (The Netherlands) and housed prior to treatment under standard conditions (21–23 °C, 12-h light/dark cycle, relative humidity 45%–65%) with unlimited access to food (R70 diet from […]
Lantmännen) and water. The experimental procedures were performed in accordance with the guidelines of the European Community and local laws and policies (Directive 2010/63/EU), and all of the procedures were approved by Food and Veterinary Service, Riga, Latvia. […]
PK assay in mice. For PK studies mice were dosed subcutaneously (SC) via a single bolus injection (injection volume 10 mL/kg). Blood samples were collected in tubes containing heparin. Blood was sampled from tail vein 15, 30, 60, 120, and 240min after the SC administration of the compounds. Tubes were centrifuged at +4 °C 10,000× g for 3 min. Plasma samples were collected and stored at −20 °C until analysis.
Plasma sample analysis by UPLC/MS/MS. Concentrations of EBL-3599 and EBL-3647 in mouse blood plasma were measured by liquid chromatography tandem mass spectrometry (LC/MS/MS) in positive electrospray ionization (ESI+) in multi reaction monitoring (MRM) mode.
Analyses were performed on a Waters Acquity UPLC system coupled to Waters XEVO TQ-Smicro tandem mass spectrometer. Chromatographical separation was carried out on Waters Acquity BEH C18 column (2.1×50mm, 1.7µm). The column temperature was 30°C, flow rate was 0.4mL/min. Linear gradient elution was applied, solvent A was 0.1% formic acid in water and solvent B was acetonitrile. The gradient program was: 0min – 5% B; 2.5min – 98% B; 4.5min – 98% B; 4.7min – 5% B; 5min – 5% B. Injection volume was 1µL.
Mass spectrometry parameters were obtained experimentally by direct infusion of EBL-3599 and […]
energy was 30 for all transitions. MS/MS transitions for EBL-3647 were 667.80 > 225.90 and 667.80 > 309.96. Cone voltage was 15V and collision energy was 35 and 25, respectively.
Calibration standards and quality control samples were prepared by spiking a blank mouse plasma with a stock solution of analyte to achieve a nominal concentration from 0.08 μg/mL to 80 μg/mL for both analyte.
A sample volume of 20 μL was transferred into a plastic tube and mixed with 300μL acetonitrile/methanol mixture (3:1, v/v) to precipitate proteins. The tubes was vortexed to mix and centrifuged at 10000 rpm for 10 min. 200 μL of supernatant was diluted with 600 μL of 0.1% formic acid and subjected to LC/MS/MS analysis. Samples above the upper limit of calibration should be diluted 10 times with blank plasma extract and reanalyzed. Bioanalysis of samples from each mouse were measured in duplicate and the results averaged.
Bacterial strains and inoculum. E. coli EC 106-09 (EN122) and K. pneumoniae SSI #3010 (EN124) are clinical isolates from Denmark. Bacterial suspensions for inoculation of mice were prepared

Where [3] appears, read: read-out: MIC K. pneumoniae EN0140.
The mark [4] stands for this setting: read-out: MIC K. pneumoniae EN0142.
[5] abbreviates: read-out: MIC K. pneumoniae EN0143.
[6] abbreviates: read-out: MIC K. pneumoniae EN0144.
The mark [7] stands for this setting: read-out: MIC K. pneumoniae EN0145.
The mark [8] stands for this setting: read-out: MIC K. pneumoniae EN0233.
Setting [9] is: read-out: MIC K. pneumoniae EN0245.
Setting [10] is: read-out: MIC K. pneumoniae EN0504.

This note sets out measurements from paper PMC11009625, “Antibiotic class with potent in vivo activity targeting lipopolysaccharide synthesis in Gram-negative bacteria” (Proceedings of the National Academy of Sciences of the …, 2024).

Values after ≈ are worked out from the molar mass of the structure shown. Where two headings read alike, the source gives them in different places.

With `Cc1cc(C#N)nc(N2CCN(S(=O)(=O)c3ccc(NC(=O)c4cc(CN5CC(CN)C5)ccc4N(C)S(C)(=O)=O)cc3)CC2)n1` [EBL-3647], the MIC90 in series [1] worked out at 4 µg/mL (≈ 5.99 µM). For the same compound, the MIC in series [2] (setting [3]) was 1 µg/mL (≈ 1.5 µM); in series [2] (setting [4]), 2 µg/mL (≈ 2.99 µM); in series [2] (setting [5]) it was 2 µg/mL (≈ 2.99 µM); in series [2] (setting [6]), 2 µg/mL (≈ 2.99 µM); in series [2] (setting [7]) it was 4 µg/mL (≈ 5.99 µM); in series [2] (setting [8]) it was 4 µg/mL (≈ 5.99 µM). Further, the MIC in series [2] (setting [9]) and in series [2] (setting [10]) was 4 µg/mL (≈ 5.99 µM) in each case. The AUC was 20200 ng·h/mL in “in vivo” (10 mg/kg), 55300 ng·h/mL in “in vivo” (25 mg/kg), 140000 ng·h/mL in “in vivo” (50 mg/kg) and 222000 ng·h/mL in the series “in vivo” (100 mg/kg). Besides, the Cmax in “in vivo” (10 mg/kg) turned out to be 12000 ng/mL; in the series “in vivo” (25 mg/kg), 30000 ng/mL; in the series “in vivo” (50 mg/kg), 72000 ng/mL; in “in vivo” (100 mg/kg), 130000 ng/mL.
Compound `Cc1cc(C#N)nc(N2CCN(S(=O)(=O)c3ccc(NC(=O)c4cc(CNCCCN)ccc4N(C)S(C)(=O)=O)cc3)CC2)n1.Cl.Cl` [EBL-3599] registered an MIC90 in series [1] of 4 µg/mL. In addition, the MIC was 1 µg/mL in series [2] (setting [3]); 2 µg/mL in series [2] (setting [4]); 2 µg/mL in series [2] (setting [5]); 2 µg/mL in series [2] (setting [6]); 4 µg/mL in series [2] (setting [7]); 4 µg/mL in series [2] (setting [8]). The MIC in series [2] (setting [9]) was 8 µg/mL; in series [2] (setting [10]), 4 µg/mL. The AUC in the series “in vivo” (10 mg/kg) is 22900 ng·h/mL; in the series “in vivo” (25 mg/kg), 58000 ng·h/mL; in the series “in vivo” (50 mg/kg) it was 136000 ng·h/mL; in the series “in vivo” (100 mg/kg) it was 349000 ng·h/mL. The Cmax in “in vivo” (10 mg/kg) was 13000 ng/mL; in “in vivo” (25 mg/kg) it was 27000 ng/mL; in the series “in vivo” (50 mg/kg), 65000 ng/mL; in “in vivo” (100 mg/kg), 142000 ng/mL.

By MIC90 is commonly meant an inhibitory concentration at the 90% level, which refers to growth in some studies and to a panel of isolates in others. A high value points to weaker potency. Usually MIC stands for the lowest concentration that inhibits growth of the organism. One may read the AUC as concentration integrated over time. The term Cmax denotes the peak of the concentration-time curve.
